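Cultured in 96-well plates, cells were exposed to test compound for 48 hours across five concentrations. GI50: concentration for 50% inhibition of growth. TGI marks complete inhibition of growth.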
The molecules below were run on MDA-MB-468 breast (assay: inhibition of tumour cell growth, NCI panel, 48 h).
For `CCCCCCNc1nc(NCCCCCC)c2[nH]c(NCCCCCC)nc2n1`, the GI50 was 1.17 µM and the TGI was 5.46 µM. In the case of `CCn1c(-c2nonc2N)nc2ccc(F)cc21`, the GI50 is reported as over 25 µM and the TGI is reported as over 25 µM. Work on `CNC(=O)c1cn(C[C@H](F)CCc2ccc(NC(=O)Cc3cc(OC4CC(F)(F)C4)cc(C)n3)nn2)nn1` yielded a GI50 of over 100 µM and a TGI of over 100 µM. `C=C(C)[C@@H]1CC[C@@]2(C(=O)O)CC[C@]3(C)C(CCC4[C@@]5(C)CCC(OS(=O)(=O)c6ccccc6)C(C)(C)C5CC[C@]43C)C12` (some centres not stated) was tested, and the GI50 was 2.76 µM and the TGI was 22.6 µM. `COc1cc(-c2cn(C)c(=O)c(C)c2C)cc(OC)c1CN1CC[C@H](N2CCN(c3ccc(N[C@H]4CCC(=O)NC4=O)cc3F)CC2)C(F)(F)C1` gave a GI50 of 7.26 µM and a TGI of 22.3 µM. For `Nc1nc(Nc2ccc(OCc3cccc(F)c3)cc2)c2c(n1)[nH]c1ccc(O)cc12`, the GI50 was 1.98 µM and the TGI was 5.36 µM. Work on `CCCNCc1cc(C)cc2c1nc(N1CCNCC1)n2Cc1cc(C)c(F)c(C)c1` yielded a GI50 of 1.88 µM and a TGI of 3.71 µM. With `COc1ccc(/C=N/NC(=O)c2[nH]c3ccc(Br)cc3c2-c2ccccc2)s1` the GI50 was 0.0586 µM and the TGI was 3.78 µM. For `COc1ccc2c(c1)C=CC(C#N)N2C(=O)c1ccccc1` (configuration not stated), the GI50 was under 0.01 µM and the TGI was over 100 µM. Work on `O=C1c2c(c3c4ccc(Br)cc4oc3c3[nH]c4ccccc4c23)C(=O)N1O` yielded a GI50 of 2.38 µM and a TGI of 8.36 µM. For `CC(C)(C)c1nc2c(o1)C(=Nc1ccc(F)cc1)c1ccccc1C2=O`, the GI50 was 5.84 µM and the TGI was over 100 µM. With `C=CC(=O)Nc1cccc(Nc2nc(Nc3ccc(OCCOC)cc3)ncc2F)c1` the GI50 was 0.976 µM and the TGI was 3.89 µM. `N#Cc1c(-c2ccccc2)nc2c(c(-c3ccccc3)nn2-c2ccccc2)c1-c1ccc(O)cc1` was tested, and the GI50 was 2.41 µM and the TGI was 5.57 µM. `O=C(Nc1cc(-c2ccccc2)[nH]n1)c1ccc(Cl)cc1` gave a GI50 of over 100 µM and a TGI of over 100 µM. Molecule `O=C(N/N=C/c1ccc(Cl)cc1Cl)c1ccccc1Nc1cccc(C(F)(F)F)c1` has a GI50 of 2.88 µM and a TGI of 12 µM. `Oc1ccc(Cc2ccccc2)c2cccnc12` was tested, and the GI50 was 1.92 µM and the TGI was 5.51 µM. `O=P(O)(O)C(O)(Cn1ccnc1)P(=O)(O)O` was tested, and the GI50 was over 87.3 µM and the TGI was over 100 µM. For `Cc1noc(C)c1-c1ccc2[nH]c(=O)n3c2c1OC[C@@H]3c1ccccn1`, the GI50 was 0.719 µM and the TGI was over 91.3 µM. `C=CC(=O)N1CCN(c2ncnc3c(F)c(-c4c(O)cccc4F)c(Cl)cc23)CC1` gave a GI50 of 10.2 µM and a TGI of 31.1 µM. In the case of `COc1ccc(/C=N/Nc2nc3ccccc3c(=O)n2-c2ccccc2)c(OCc2ccccc2)c1`, the GI50 is reported as over 100 µM and the TGI is reported as over 100 µM. `COCC(=O)OC1CCn2c1nc1c2C(=O)C(C)=C(NC(C)=O)C1=O` (configuration not stated) showed a GI50 of 0.27 µM and a TGI of 0.894 µM. Molecule `NCCN1CCN(c2nccc(-c3ccc4ccccc4c3)n2)CC1` has a GI50 of 1.77 µM and a TGI of 3.42 µM. `Cc1ncc(NC(=O)c2ccc(CN3CCN(C)CC3)c(C(F)(F)F)c2)cc1Nc1nccc(-c2cccnc2)n1` was tested, and the GI50 was 14.6 µM and the TGI was 29.4 µM. `COc1ccc(NC2=C(Br)C(=O)C(C)=C(C)C2=O)cc1` was tested, and the GI50 was 1.56 µM and the TGI was 3.16 µM. For `O=c1cc(-c2ccccc2F)[nH]c2cc3c(cc12)OCO3`, the GI50 was 6.39 µM and the TGI was over 100 µM. Molecule `CC1=C(C)C(=O)O[C@@H]([C@](C)(O)[C@]2(O)CC[C@@]3(O)[C@@H]4C[C@H]5O[C@]56CC=CC(=O)[C@]6(C)[C@H]4CC[C@]23C)C1` has a GI50 of 0.119 µM and a TGI of 0.725 µM. With `Cc1ccc(-c2nc(C(Cl)Cl)n3nc(-c4ccccc4)cc3n2)cc1` the GI50 was 0.239 µM and the TGI was 0.612 µM. For `FC(F)(F)c1ccc2c(Nc3cccc(C4CC(c5ccccc5)=NN4c4ccc(Cl)cc4)c3)ccnc2c1` (configuration not stated), the GI50 was 3.02 µM and the TGI was 16.6 µM. In the case of `CNc1nc(NC2CCCC2)nc(Sc2ccc(OC)cc2)n1`, the GI50 is reported as over 10 µM and the TGI is reported as over 10 µM. `CC(C)(C)OC(=O)c1ccc(NCc2cc(O)ccc2O)cc1` gave a GI50 of 1.51 µM and a TGI of 3.45 µM. In the case of `CCNCCOc1ccc(/C(=C(/CC)c2ccc(Cl)cc2)c2ccc(OCCCN(C)C)cc2)cc1`, the GI50 is reported as 1.52 µM and the TGI is reported as 5.35 µM.

— PubChem BioAssay (NCI)
